Legend:
Format in all cases: cell-based
[1] = test system: Staphylococcus aureus A9601; assay: MIC, serial two-fold dilution method (aerobic)
[2] = test system: Staphylococcus aureus A9748; assay: MIC, serial two-fold dilution method (aerobic)
[3] = test system: Staphylococcus aureus A9856; assay: MIC, serial two-fold dilution method (aerobic)
[4] = test system: Staphylococcus aureus A20394; assay: MIC, serial two-fold dilution method (aerobic)
[5] = test system: Staphylococcus aureus A20701; assay: MIC, serial two-fold dilution method (aerobic)
[6] = test system: Streptococcus pneumoniae IID-Type-I; assay: MIC, serial two-fold dilution method (aerobic)
Micrococcus flavus D-12 = assay: MIC, serial two-fold dilution method (aerobic)
[7] = test system: Bacillus anthracis IID-115; assay: microbe, parasite or virus in culture
Escherichia coli NIHJ = assay: MIC, serial two-fold dilution method (aerobic)
[8] = test system: Neisseria meningitidis A20048; assay: MIC, serial two-fold dilution method (aerobic)
[9] = test system: Clostridium acidiurici A9560; assay: MIC, serial two-fold dilution method (anaerobic)
[10] = test system: Clostridium chauvoei A9561; assay: MIC, serial two-fold dilution method (anaerobic)
Protocol: (§1) The minimum inhibitory concentration (MIC) of Bu-2517 was determined for a variety of aerobic and anaerobic bacteria by the serial two-fold dilution method using a multi-inoculating apparatus. Mueller-Hinton agar was generally used for aerobic bacteria, GC medium (Eiken) for fastidious aerobic organisms such as streptococci, Neisseria and Haemophilus species, and GAM agar medium (Nissui) for anaerobic bacteria. The inoculum size was adjusted to 10^6 CFU/ml for streptococci, Neisseria and Haemophilus species, 10^4 for other aerobic bacteria and 10^7 -10^8 for all anaerobic organisms. Amphomycin, ampicillin, chloramphenicol, clindamycin, erthromycin, kanamycin and vancomycin were used as reference antibiotics.

[11] = test system: Clostridium difficile A21675; assay: MIC, serial two-fold dilution method (anaerobic)
Protocol: as §1

[12] = test system: Clostridium difficile A21972; assay: MIC, serial two-fold dilution method (anaerobic)
Protocol: as §1

[13] = test system: Clostridium septicum A21869; assay: MIC, serial two-fold dilution method (anaerobic)
Protocol: as §1

[14] = test system: Clostridium cylindrosporum A9562; assay: MIC, serial two-fold dilution method (anaerobic)
[15] = test system: Propionibacterium acnes A21933; assay: MIC, serial two-fold dilution method (anaerobic)
[16] = test system: Propionibacterium acnes A21953; assay: MIC, serial two-fold dilution method (anaerobic)
[17] = test system: Peptostreptococcus intermedius A21881; assay: MIC, serial two-fold dilution method (anaerobic)
[18] = test system: Bacteroides fragilis A20929; assay: MIC, serial two-fold dilution method (anaerobic)
[19] = test system: Bacteroides fragilis A22053; assay: MIC, serial two-fold dilution method (anaerobic)
[20] = test system: Bacteroides ovatus A22400; assay: MIC, serial two-fold dilution method (anaerobic)
[21] = test system: Fusobacterium nucleatum A21906; assay: MIC, serial two-fold dilution method (anaerobic)
[22] = test system: Veillonella alcalescens A21914-1; assay: MIC, serial two-fold dilution method (anaerobic)

CN[C@H](CC(C)C)C(=O)N[C@H]1C(=O)N[C@@H](CC(N)=O)C(=O)N[C@H]2C(=O)N[C@H]3C(=O)N[C@H](C(=O)N[C@H](C(=O)O)c4cc(O)cc(O)c4-c4cc3ccc4O)[C@H](O)c3ccc(c(Cl)c3)Oc3cc2cc(c3O[C@@H]2O[C@H](CO)[C@@H](O)[C@H](O)[C@H]2O[C@H]2C[C@](C)(N)[C@H](O)[C@H](C)O2)Oc2ccc(cc2Cl)[C@H]1O [Vancomycin]
0.4 µg/mL: MIC ([4]; Staphylococcus aureus, A20394, read-out: minimum inhibitory concentration (MIC))
> 100 µg/mL: MIC (Escherichia coli NIHJ; Escherichia coli, read-out: minimum inhibitory concentration (MIC)) | MIC ([8]; Neisseria meningitidis, A20048, read-out: minimum inhibitory concentration (MIC))
50 µg/mL: MIC ([19]; Bacteroides fragilis, A22053, read-out: minimum inhibitory concentration (MIC)) | MIC ([20]; Bacteroides ovatus, A22400, read-out: minimum inhibitory concentration (MIC))
0.2 µg/mL: MIC (Micrococcus flavus D-12; Micrococcus flavus, D12, read-out: minimum inhibitory concentration (MIC))
0.8 µg/mL: MIC ([1]; Staphylococcus aureus, A9601, read-out: minimum inhibitory concentration (MIC)) | MIC ([2]; Staphylococcus aureus, A9748, read-out: minimum inhibitory concentration (MIC)) | MIC ([3]; Staphylococcus aureus, A9856, read-out: minimum inhibitory concentration (MIC)) | MIC ([5]; Staphylococcus aureus, A20701, read-out: minimum inhibitory concentration (MIC)) | MIC ([6]; Streptococcus pneumoniae, read-out: minimum inhibitory concentration (MIC)) | MIC ([9]; Gottschalkia acidurici, A9560, read-out: minimum inhibitory concentration (MIC)) | MIC ([10]; Clostridium chauvoei, A9561, read-out: minimum inhibitory concentration (MIC)) | MIC ([11]; Clostridioides difficile, A21675, read-out: minimum inhibitory concentration (MIC)) | MIC ([13]; Clostridium septicum, A21869, read-out: minimum inhibitory concentration (MIC)) | MIC ([14]; Clostridium cylindrosporum, A9562, read-out: minimum inhibitory concentration (MIC)) | MIC ([15]; Cutibacterium acnes, A21933, read-out: minimum inhibitory concentration (MIC)) | MIC ([16]; Cutibacterium acnes, A21953, read-out: minimum inhibitory concentration (MIC)) | MIC ([18]; Bacteroides fragilis, A20929, read-out: minimum inhibitory concentration (MIC)) | MIC ([21]; Fusobacterium nucleatum, A21906, read-out: minimum inhibitory concentration (MIC))
1.6 µg/mL: MIC ([7]; Bacillus anthracis, IID115, read-out: minimum inhibitory concentration (MIC)) | MIC ([12]; Clostridioides difficile, A21972, read-out: minimum inhibitory concentration (MIC)) | MIC ([17]; Peptostreptococcus, A21881, read-out: minimum inhibitory concentration (MIC)) | MIC ([22]; Veillonella parvula, A219141, read-out: minimum inhibitory concentration (MIC))

Amphomycin
0.4 µg/mL: minimum inhibitory concentration (MIC) (Micrococcus flavus D-12; Micrococcus flavus D-12, Mueller-Hinton agar, inoculum 10^4)
3.1 µg/mL: minimum inhibitory concentration (MIC) ([1]; Staphylococcus aureus A9601, Mueller-Hinton agar, inoculum 10^4) | minimum inhibitory concentration (MIC) ([3]; Staphylococcus aureus A9856, Mueller-Hinton agar, inoculum 10^4) | minimum inhibitory concentration (MIC) ([4]; Staphylococcus aureus A20394, Mueller-Hinton agar, inoculum 10^4) | minimum inhibitory concentration (MIC) ([9]; Clostridium acidiurici A9560, GAM agar medium, inoculum 10^7-10^8) | minimum inhibitory concentration (MIC) ([11]; Clostridium difficile A21675, GAM agar medium, inoculum 10^7-10^8) | minimum inhibitory concentration (MIC) ([15]; Propionibacterium acnes A21933, GAM agar medium, inoculum 10^7-10^8)
50 µg/mL: minimum inhibitory concentration (MIC) ([18]; Bacteroides fragilis A20929, GAM agar medium, inoculum 10^7-10^8)
25 µg/mL: minimum inhibitory concentration (MIC) ([6]; Streptococcus pneumoniae IID-Type-I, GC medium, inoculum 10^6 CFU/ml) | minimum inhibitory concentration (MIC) ([12]; Clostridium difficile A21972, GAM agar medium, inoculum 10^7-10^8) | minimum inhibitory concentration (MIC) ([14]; Clostridium cylindrosporum A9562, GAM agar medium, inoculum 10^7-10^8) | minimum inhibitory concentration (MIC) ([22]; Veillonella alcalescens A21914-1, GAM agar medium, inoculum 10^7-10^8)
0.8 µg/mL: minimum inhibitory concentration (MIC) ([7]; Bacillus anthracis IID-115, Mueller-Hinton agar, inoculum 10^4)
6.3 µg/mL: minimum inhibitory concentration (MIC) ([2]; Staphylococcus aureus A9748, Mueller-Hinton agar, inoculum 10^4) | minimum inhibitory concentration (MIC) ([5]; Staphylococcus aureus A20701, Mueller-Hinton agar, inoculum 10^4) | minimum inhibitory concentration (MIC) ([10]; Clostridium chauvoei A9561, GAM agar medium, inoculum 10^7-10^8) | minimum inhibitory concentration (MIC) ([13]; Clostridium septicum A21869, GAM agar medium, inoculum 10^7-10^8) | minimum inhibitory concentration (MIC) ([16]; Propionibacterium acnes A21953, GAM agar medium, inoculum 10^7-10^8) | minimum inhibitory concentration (MIC) ([17]; Peptostreptococcus intermedius A21881, GAM agar medium, inoculum 10^7-10^8) | minimum inhibitory concentration (MIC) ([21]; Fusobacterium nucleatum A21906, GAM agar medium, inoculum 10^7-10^8)
> 100 µg/mL: minimum inhibitory concentration (MIC) (Escherichia coli NIHJ; Escherichia coli NIHJ, Mueller-Hinton agar, inoculum 10^4) | minimum inhibitory concentration (MIC) ([8]; Neisseria meningitidis A20048, GC medium, inoculum 10^6 CFU/ml) | minimum inhibitory concentration (MIC) ([19]; Bacteroides fragilis A22053, GAM agar medium, inoculum 10^7-10^8) | minimum inhibitory concentration (MIC) ([20]; Bacteroides ovatus A22400, GAM agar medium, inoculum 10^7-10^8)

From patent US4409210A, “Antibiotic compound” (priority 1982, dated 1983)
